Assay results published in patent US9422293B2 (priority 2006, dated 2016).
pIC50: −log10 of the molar value. Where a name gives a salt, the structure may show the parent alone.

Molecular target: rat TRPV1 (Rattus norvegicus (Rat), UniProt O35433)
Details: read-out: Rat IC50

Chain of rat TRPV1 (O35433 whole entry): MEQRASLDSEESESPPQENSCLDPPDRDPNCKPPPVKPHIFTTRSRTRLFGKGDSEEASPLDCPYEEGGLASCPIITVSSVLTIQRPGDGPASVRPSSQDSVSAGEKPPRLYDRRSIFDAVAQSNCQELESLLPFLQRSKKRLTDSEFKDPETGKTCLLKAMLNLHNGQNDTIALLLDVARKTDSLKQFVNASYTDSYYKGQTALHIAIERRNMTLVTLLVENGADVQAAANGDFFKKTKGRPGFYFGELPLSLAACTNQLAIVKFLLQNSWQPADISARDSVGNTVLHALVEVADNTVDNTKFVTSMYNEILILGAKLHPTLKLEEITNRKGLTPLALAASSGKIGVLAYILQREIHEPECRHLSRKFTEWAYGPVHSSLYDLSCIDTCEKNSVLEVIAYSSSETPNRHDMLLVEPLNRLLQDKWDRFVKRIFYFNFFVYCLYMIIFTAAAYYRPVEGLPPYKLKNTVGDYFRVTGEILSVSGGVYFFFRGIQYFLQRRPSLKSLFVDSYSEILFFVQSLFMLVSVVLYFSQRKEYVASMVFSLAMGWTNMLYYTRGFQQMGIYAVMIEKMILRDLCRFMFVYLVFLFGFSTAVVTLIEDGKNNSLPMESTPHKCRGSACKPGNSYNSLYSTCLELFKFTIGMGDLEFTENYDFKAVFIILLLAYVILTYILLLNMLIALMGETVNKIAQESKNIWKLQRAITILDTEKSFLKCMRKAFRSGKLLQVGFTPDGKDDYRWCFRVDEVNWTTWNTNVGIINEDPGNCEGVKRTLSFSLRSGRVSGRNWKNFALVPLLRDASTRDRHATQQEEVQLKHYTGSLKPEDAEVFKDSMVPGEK

Row | Structure (SMILES) | pIC50
1 | N#Cc1cccnc1N1CCc2ncnc(Nc3ccc(C(F)(F)F)cc3)c2CC1 [Example 293, 2-(4-{[4-(Trifluoromethyl)phenyl]amino}-5,6,8,9-tetrahydro-7H-pyrimido[4,5-d]azepin-7-yl)pyridine-3-carbonitrile] | 5.46
2 | NC(=O)c1cccnc1N1CCc2ncnc(Nc3ccc(C(F)(F)F)cc3)c2CC1 [Example 294, 2-(4-{[4-(Trifluoromethyl)phenyl]amino}-5,6,8,9-tetrahydro-7H-pyrimido[4,5-d]azepin-7-yl)pyridine-3-carboxamide trifluoroacetic acid salt] | 5.53
3 | Fc1cccnc1N1CCc2ncnc(Nc3ccc(C(F)(F)F)cc3)c2CC1 [Example 295, 7-(3-Fluoropyridin-2-yl)-N-[4-(trifluoromethyl)phenyl]-6,7,8,9-tetrahydro-5H-pyrimido[4,5-d]azepin-4-amine] | 4.98
4 | CCS(=O)(=O)c1cccnc1N1CCc2nc(C(C)C)nc(Nc3ccc(C(C)(C)C)cc3)c2CC1 [Example 296, N-[4-(1,1-Dimethylethyl)phenyl]-7-[3-(ethylsulfonyl)pyridin-2-yl]-2-(1-methylethyl)-6,7,8,9-tetrahydro-5H-pyrimido[4,5-d]azepin-4-amine] | 6.92
5 | CCS(=O)(=O)c1cccnc1N1CCc2nc(N3CCCCC3)nc(Nc3ccc(C(F)(F)F)cc3)c2CC1 [Example 297, 7-[3-(Ethylsulfonyl)pyridin-2-yl]-2-piperidin-1-yl-N-[4-(trifluoromethyl)phenyl]-6,7,8,9-tetrahydro-5H-pyrimido[4,5-d]azepin-4-amine] | 5.97
6 | O=S(=O)(NC1CC1)c1cccnc1N1CCc2nc(N3CCCCC3)nc(Nc3ccc(C(F)(F)F)cc3)c2CC1 [Example 299, N-Cyclopropyl-2-(2-piperidin-1-yl-4-{[4-(trifluoromethyl)phenyl]amino}-5,6,8,9-tetrahydro-7H-pyrimido[4,5-d]azepin-7-yl)pyridine-3-sulfonamide] | 5.52
7 | CC(C)NS(=O)(=O)c1cccnc1N1CCc2nc(N3CCCCC3)nc(Nc3ccc(C(F)(F)F)cc3)c2CC1 [Example 300, N-(1-Methylethyl)-2-(2-piperidin-1-yl-4-{[4-(trifluoromethyl)phenyl]amino}-5,6,8,9-tetrahydro-7H-pyrimido[4,5-d]azepin-7-yl)pyridine-3-sulfonamide] | 5.70
8 | CCS(=O)(=O)c1cccnc1N1CCc2ncnc(Nc3ccc(C(F)(F)F)cc3)c2CC1 [Example 301, 7-[3-(Ethylsulfonyl)pyridin-2-yl]-N-[4-(trifluoromethyl)phenyl]-6,7,8,9-tetrahydro-5H-pyrimido[4,5-d]azepin-4-amine] | 5.05
9 | NS(=O)(=O)c1cccnc1N1CCc2ncnc(Nc3ccc(C(F)(F)F)cc3)c2CC1 [Example 302, 2-(4-{[4-(Trifluoromethyl)phenyl]amino}-5,6,7,8,9-tetrahydro-7H-pyrimido[4,5-d]azepin-7-yl)pyridine-3-sulfonamide] | 5.02
10 | COC(=O)c1cnc(N2CCc3nc(SC)nc(Nc4ccc(C(F)(F)F)cc4)c3CC2)c(Cl)c1 [Example 303, Methyl 5-chloro-6-[2-(methylsulfanyl)-4-{[4-(trifluoromethyl)phenyl]amino}-5,6,8,9-tetrahydro-7H-pyrimido[4,5-d]azepin-7-yl]pyridine-3-carboxylate] | < 5.18
11 | CCS(=O)(=O)c1cccnc1N1CCc2nc(SC)nc(Nc3ccc(C(F)(F)F)cc3)c2CC1 [Example 305, [7-(3-Ethanesulfonyl-pyridin-2-yl)-2-methylsulfanyl-6,7,8,9-tetrahydro-5H-pyrimido[4,5-d]azepin-4-yl]-(4-trifluoromethyl-phenyl)-amine] | 5.95
12 | O=S(=O)(c1ccc(Nc2nc(OC3CCCCC3)nc3c2CCN(c2ncccc2C(F)(F)F)CC3)cc1)C(F)(F)F [Example 308, 2-(Cyclohexyloxy)-7-[3-(trifluoromethyl)pyridin-2-yl]-N-{4-[(trifluoromethyl)sulfonyl]phenyl}-6,7,8,9-tetrahydro-5H-pyrimido[4,5-d]azepin-4-amine] | 6.44
